Laboratory results from patent publication US20060217370A1, “Compounds useful for the treatment and prevention of pain and screening methods therefor” (priority 2005, published 2006).

How the values were obtained:
Test in all cases: Receptor Selection and Amplification Technology (R-SAT) functional receptor assay
human MrgX2 = target: T1, human MrgX2 (Homo sapiens, UniProt Q96LB1); format: cell-based; conditions: for Human-X2 Eff(%): efficacy relative to STIA, nr = no response up to 10 micromolar; for EC50: transfected NIH3T3 cells, read-out: Human-X2 pEC50 (converted)
T1 construct: expressed in transfected cells; host or cells: NIH3T3
T1 sequence (Q96LB1 1-330): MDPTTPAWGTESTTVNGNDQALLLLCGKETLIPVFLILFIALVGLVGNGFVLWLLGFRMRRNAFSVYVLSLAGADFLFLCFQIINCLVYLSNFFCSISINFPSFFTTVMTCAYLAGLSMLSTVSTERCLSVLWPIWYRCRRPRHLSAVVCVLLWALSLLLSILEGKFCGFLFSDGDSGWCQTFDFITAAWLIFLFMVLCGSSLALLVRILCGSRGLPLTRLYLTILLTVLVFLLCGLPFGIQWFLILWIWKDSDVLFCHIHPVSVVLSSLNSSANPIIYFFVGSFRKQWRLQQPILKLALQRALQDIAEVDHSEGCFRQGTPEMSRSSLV
Method: (§1) The functional receptor assay, Receptor Selection and Amplification Technology (R-SAT), was used to investigate the pharmacological properties of test compounds on MRGX1 or MRGX2 receptors. R-SAT is disclosed in U.S. Pat. Nos. 5,707,798, 5,912,132, and 5,955,281, each of which is incorporated by reference herein in its entirety, including any drawings.
(§2) Briefly, NIH3T3 cells were grown in 96-well tissue culture plates to 70-80% confluence. Cells were transfected for 16-20 h with plasmid DNAs using Polyfect (Qiagen Inc.) and the manufacturer's protocols. R-SATs were generally performed with 4 ng/well of receptor and 20 ng/well of β-galactosidase plasmid DNA. The human MrgX1, simian MrgX1, human MrgX2 and simian MrgX2 receptor genes were amplified by PCR from genomic DNA using oligodeoxynucleotide primers based on SEQ ID NO:1, SEQ ID NO:3, SEQ ID NO:5, SEQ ID NO:7, or SEQ ID NO:9. For large-scale transfections, cells were transfected for 16-20 h, then trypsinized and frozen in DMSO. Frozen cells were later thawed, plated at ˜10,000 cells per well of a 96 half-area well plate that contained test compound. With both methods, cells were then grown in a humidified atmosphere with 5% ambient CO2 for five days. The medium was then removed from the plates and marker gene activity was measured by the addition of the β-galactosidase substrate o-nitrophenyl β-galactopyranoside (ONPG, in PBS with 0.5% NP-40). The resulting colorimetric reaction was measured in a spectrophotometric plate reader (Titertek Inc.) at 420 nm. All data were analyzed using the computer program XLFit (IDBSm). Efficacy is defined as the percent maximal activation compared to activation by a control compound (BAM22 in the case of human or simian MRGX1, STIA or Cortistatin-14 in the case of human or simian MRGX2). pEC50 is the negative of log(EC50), where EC50 is the calculated molar concentration of test compound that produces 50% of maximum activation.
(§3) Efficacy is reported relative to the ligands Bam22 for MrgX1 and STIA for MrgX2.

human MrgX1 = target: T2, human MrgX1 (Homo sapiens, UniProt Q96LB2); format: cell-based; conditions: for Human-X1 Eff(%): efficacy relative to Bam22, nr = no response up to 10 micromolar
T2 construct: expressed in transfected cells; host or cells: NIH3T3
T2 sequence (Q96LB2 whole entry): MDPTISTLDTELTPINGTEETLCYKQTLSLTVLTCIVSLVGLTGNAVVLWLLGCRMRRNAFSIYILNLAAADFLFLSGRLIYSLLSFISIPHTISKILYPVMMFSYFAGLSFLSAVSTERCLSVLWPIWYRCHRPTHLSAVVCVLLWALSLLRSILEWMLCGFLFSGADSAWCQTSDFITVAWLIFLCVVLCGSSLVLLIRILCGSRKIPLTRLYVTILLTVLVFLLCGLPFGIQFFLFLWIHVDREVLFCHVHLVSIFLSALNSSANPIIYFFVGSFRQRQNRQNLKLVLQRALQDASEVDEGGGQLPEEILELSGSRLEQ
Method: as §1, §2, §3

simian MrgX1 = simian MrgX1 (Macaca mulatta, UniProt Q1L4E8, cells depend on it, form not given, species not given); format: cell-based, monkey; conditions: efficacy relative to Bam22, nr = no response up to 10 micromolar
Chain of simian MrgX1 (Q1L4E8 1-322, change not shown): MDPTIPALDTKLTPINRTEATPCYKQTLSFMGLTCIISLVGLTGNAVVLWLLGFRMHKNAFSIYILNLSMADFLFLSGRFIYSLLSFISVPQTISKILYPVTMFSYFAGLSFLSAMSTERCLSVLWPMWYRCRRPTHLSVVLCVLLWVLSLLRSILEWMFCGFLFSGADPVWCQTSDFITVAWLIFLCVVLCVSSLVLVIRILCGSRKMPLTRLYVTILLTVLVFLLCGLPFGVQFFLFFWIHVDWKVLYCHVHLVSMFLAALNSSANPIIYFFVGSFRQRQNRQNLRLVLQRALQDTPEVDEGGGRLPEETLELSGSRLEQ
Method: as §1
Briefly, NIH3T3 cells were grown in 96-well tissue culture plates to 70-80% confluence. Cells were transfected for 16-20 h with plasmid DNAs using Polyfect (Qiagen Inc.) and the manufacturer's protocols. R-SATs were generally performed with 4 ng/well of receptor and 20 ng/well of β-galactosidase plasmid DNA. The human MrgX1, simian MrgX1, human MrgX2 and simian MrgX2 receptor genes were amplified by PCR from genomic DNA using oligodeoxynucleotide primers based on SEQ ID NO:1, SEQ ID NO:3, SEQ ID NO:5, SEQ ID NO:7, or SEQ ID NO:9. For large-scale transfections, cells were transfected for 16-20 h, then trypsinized and frozen in DMSO. […] The medium was then removed from the plates and marker gene activity was measured by the addition of the β-galactosidase substrate o-nitrophenyl β-galactopyranoside (ONPG, in PBS with 0.5% NP-40). The resulting colorimetric reaction was measured in a spectrophotometric plate reader (Titertek Inc.) at 420 nm. All data were analyzed using the computer program XLFit (IDBSm). […]

SMILES: CC[C@H](C)C1C(=O)Nc2ccc(NCCCN(C)C)cc2-c2nc3cc(C(=O)NCc4cccc(C(F)(F)F)c4)ccc3n21 (some centres unmarked) [Mrg-173]
- Human-X2 Eff(%) (human MrgX2): 98%
- EC50 (human MrgX2): 316 nM
- Human-X1 Eff(%) (human MrgX1): 124%
- EC50 (human MrgX1; transfected NIH3T3 cells, read-out: Human-X1 pEC50 (converted)): 39.8 nM

SMILES: CC(C)C1C(=O)Nc2ccc(N3CCN(Cc4ccccc4)CC3)cc2-c2nc3cc(C(=O)N(C)C4CCN(C)CC4)ccc3n21 (centres unmarked) [Mrg-606]
- Monkey-X1 Eff(%) (simian MrgX1): nr
- Human-X2 Eff(%) (human MrgX2): 174%
- EC50 (human MrgX2): 100 nM
- Human-X1 Eff(%) (human MrgX1): nr
